This is an account of results in ChEMBL document CHEMBL1155034, “Constituents of the root wood of Zanthoxylum wutaiense with antitubercular activity” (2008).

The assay concerns Mycobacterium tuberculosis. Nature of the assay: Antitubercular activity against Mycobacterium tuberculosis H37Rv after 2 weeks. Particulars: 336 h. Format: functional.

Converted amounts (≈) assume the structure as drawn.

As usually defined, the MIC is the lowest concentration found to suppress growth. Low values mean a more susceptible organism, high ones a less susceptible organism. For `COc1cc(/C=C/C=O)cc2ccoc12`, inhibition of growth (MIC) required 35 µg/mL (≈ 173 µM).
`COc1cc(CCCO)cc2ccoc12` came in with an MIC of 50 µg/mL (≈ 242 µM). The MIC values of the last two compounds are within 1.5-fold of each other.
Take `COC(=O)c1cc2c(c(OC)c1)O[C@H](C(C)(C)O)C2`: the MIC was determined as 35 µg/mL (≈ 131 µM). The MIC values of the last two compounds are within 1.5-fold of each other.
Consider `COc1c2ccccc2nc2occc12` [DICTAMNINE], for which the MIC was 30 µg/mL (≈ 151 µM).
In turn, `CC[C@@H](CO)NCCN[C@@H](CC)CO` [ETHAMBUTOL] yielded an MIC of 6.25 µg/mL (≈ 30.6 µM).
`COc1c2ccoc2nc2c(OC)cccc12` [GAMMA-FAGARINE] came in with a minimal inhibitory concentration (MIC) of 30 µg/mL (≈ 131 µM). This MIC lies about 4.8-fold higher than the previous one.
In turn, `COC(=O)/C=C/c1ccc2c(c1)C[C@@H](C(C)(C)O)O2` [METHYL DEMETHOXYWUTAIENSATE] registered an MIC of 50 µg/mL (≈ 191 µM).
Under `CC(C)=CCOc1ccc(C(=O)O)cc1` [VALENCIC ACID] stands 45 µg/mL (≈ 218 µM); under `COc1cc(/C=C/C=O)cc2c1O[C@H](C(C)(C)O)C2` [WUTAIENSAL], 30 µg/mL (≈ 114 µM).
